Patent US4713371A, “Anthracycline derivatives and their use as cytostatics” (Hoechst Aktiengesellschaft, priority 1983, dated 1987)
Converted amounts (≈) assume the structure as drawn. Read-outs that look alike come from different tables or passages of the source.

Experiments:
L1210 leukemia cells = experiment: Formation of colonies of L1210 leukemia cells in soft agar; assay type: cell-based; settings: Mus musculus
Method: (§1) The cytostatic activity of the compounds described in this text was determined on L1210 mouse leukemia cells. Specifically, the following test systems were used:
(b) Formation of colonies of L1210 leukemia cells in soft agar
This method is used to detect an effect of the test substance on the growth characteristics of the cells over several generations (with the cell cycle period being 10-12 hours, about 14 consecutive generations are observed in the 7-day test period).
In this test, substances having cytostatic effects bring about a reduction in the number of colonies found compared with an untreated control. Specifically, the test is carried out as follows:
500 leukemia cells per plate are incubated with various concentrations of the test substance at 37° C. for 1 hour. The cells are then washed twice with McCoy 5a medium and, after addition of 0.3% agar, are finally poured into Petri dishes. Controls are merely incubated with fresh medium. In some cases, in place of incubation for 1 hour, various concentrations of the test substance are mixed into the upper agar layer in order thus to achieve continuous exposure of the cells throughout the incubation time. After the agar has solidified, the plates are incubated in an incubator at 37° C. for 7 days (5% CO2, 95% relative humidity). Then the number of resulting colonies having a diameter of 60μ is counted. The results are reported as the number of colonies in the treated agar plates as a percentage of the untreated control. The IC50 is determined from the dose-activity curve thus obtained and serves as a measure of the action of the substance. The results for the compounds described in this text are summarized and compared with adriamycin in Table 1.

[1] = tested on: L1210 mouse leukemia cells; experiment: Proliferation assay (14C-thymidine incorporation) on L1210 leukemia cells; assay type: cell-based; settings: read-out: Proliferation test IC50
Method: as §1
In this method, the extent to which the cells can incorporate radioactive DNA precursors (for example ^14 C-labeled thymidine) in vitro is determined after incubation of the cells with various concentrations of the test substance. Untreated L1210 cells are subjected to the same test conditions and serve as the control. The method is briefly described below:
L1210 cells in the exponential phase of growth (5×10^3 /ml in RPMI 1640) are incubated in a microtiter plate with various concentrations of the test substance for 72 hours (37° C., 5% CO2, 95% relative humidity). The controls comprise cells which are merely incubated with fresh medium. All determinations are carried out in quadruplicate. After 65 hours, 50 μl of ^14 C-thymidine (1.5 μCi/ml) are added in order to radiolabel the DNA in the cells. After incubation for 7 hours, the cells are filtered off with suction, the DNA is precipitated with 5% strength trichloroacetic acid and is then washed consecutively with water and methanol.
After drying at 50° C. and addition of 5 ml of scintillation liquid, the radioactivity incorporated in the DNA is measured.
The results are reported as the ratio of the scintillation count after incubation with the test substance as a percentage of the untreated control. The dose-activity curve is derived from the figures thus measured, and the IC50, i.e. the concentration which decreases the incorporation of radioactive thymidine by 50% compared with the control under the test conditions, is determined graphically. The IC50 figures for the compounds described in this text are summarized and compared with adriamycin (ADM) in Table 1.

[2] = 168 h, 7 days incubation (continuous exposure), soft agar, L1210, read-out: Colony formation test IC50, 7 days incubation
[3] = 1 hour incubation, then washed, soft agar 7 days, L1210, read-out: Colony formation test IC50, 1 hour incubation
[4] = 72 hours incubation, L1210 cells, 14C-thymidine incorporation
[5] = L1210, 168 h, read-out: Colony formation test IC50, 7 days incubation
[6] = L1210, read-out: Colony formation test IC50, 1 hour incubation

COc1cccc2c1C(=O)c1c(O)c3c(c(O)c1C2=O)C[C@@](O)(C(=O)CO)C[C@@H]3O[C@H]1C[C@H](N)[C@H](O)[C@H](C)O1 [ADM, adriamycin, reference compound]
IC50 (L1210 leukemia cells; [2]): 22 ng/mL (≈ 40.5 nM)
IC50 (L1210 leukemia cells; [3]): 44 ng/mL (≈ 81 nM)
IC50 [1, 4]: 6 ng/mL (≈ 11 nM)

CCC1(O)CC(OC2CC(N(C)C)C(OC3CCC(OC4CCC(O)C(C)O4)C(C)O3)C(C)O2)c2c(O)c3c(c(O)c2C1OC1CC(N(C)C)C(OC2CCC(OC4CCC(O)C(C)O4)C(C)O2)C(C)O1)C(=O)c1cccc(O)c1C3=O (stereo not shown) [Cytorhodin A]
IC50 (L1210 leukemia cells; [2]): 3 ng/mL (≈ 2.59 nM)
IC50 (L1210 leukemia cells; [3]): 1.3 ng/mL (≈ 1.12 nM)
IC50 [1, 4]: 1.1 ng/mL (≈ 0.95 nM)

CCC1(O)CC(OC2CC(N(C)C)C(OC3CC(O)C(OC4CCC(=O)C(C)O4)C(C)O3)C(C)O2)c2c(O)c3c(c(O)c2C1OC1CC(N(C)C)C(OC2CCC(OC4CCC(O)C(C)O4)C(C)O2)C(C)O1)C(=O)c1cccc(O)c1C3=O (stereo not shown) [Cytorhodin B]
IC50 (L1210 leukemia cells; [2]): 3.4 ng/mL (≈ 2.9 nM)
IC50 (L1210 leukemia cells; [3]): 1.2 ng/mL (≈ 1.02 nM)
IC50 [1, 4]: 2.8 ng/mL (≈ 2.39 nM)

CCC1(O)CC(OC2CC(N(C)C)C(OC3CC4OC5CC(=O)C(C)OC5OC4C(C)O3)C(C)O2)c2c(O)c3c(c(O)c2C1OC1CC(N(C)C)C(OC2CC4OC5CC(=O)C(C)OC5OC4C(C)O2)C(C)O1)C(=O)c1cccc(O)c1C3=O (stereo not shown) [Cytorhodin C]
IC50 (L1210 leukemia cells; [5]): 0.15 ng/mL (≈ 0.127 nM)
IC50 (L1210 leukemia cells; [6]): 3.4 ng/mL (≈ 2.88 nM)
IC50 ([1]; L1210, 72 h): 0.55 ng/mL (≈ 0.466 nM)

CCC1(O)CC(OC2CC(N(C)C)C(OC3CC4OC5CC(=O)C(C)OC5OC4C(C)O3)C(C)O2)c2c(O)c3c(c(O)c2C1OC1CC(N(C)C)C(OC2CCC(OC4C=CC(=O)C(C)O4)C(C)O2)C(C)O1)C(=O)c1cccc(O)c1C3=O (stereo not shown) [Cytorhodin D]
IC50 (L1210 leukemia cells; [5]): 3.7 ng/mL (≈ 3.18 nM)
IC50 (L1210 leukemia cells; [6]): 2.8 ng/mL (≈ 2.4 nM)
IC50 ([1]; L1210, 72 h): 0.28 ng/mL (≈ 0.24 nM)

CCC1(O)CCc2c(O)c3c(c(O)c2C1OC1CC(N(C)C)C(OC2CCC(OC4CCC(O)C(C)O4)C(C)O2)C(C)O1)C(=O)c1cccc(O)c1C3=O (stereo not shown) [Cytorhodin E]
IC50 (L1210 leukemia cells; [2]): 1.4 ng/mL (≈ 1.85 nM)
IC50 (L1210 leukemia cells; [3]): 28 ng/mL (≈ 37 nM)
IC50 [1, 4]: 25 ng/mL (≈ 33.1 nM)

CCC1(O)CC(OC2CC(N(C)C)C(OC3CCC(OC4C=CC(=O)C(C)O4)C(C)O3)C(C)O2)c2c(O)c3c(c(O)c2C1OC1CC(N(C)C)C(OC2CCC(OC4C=CC(=O)C(C)O4)C(C)O2)C(C)O1)C(=O)c1cccc(O)c1C3=O (stereo not shown) [Cytorhodin F]
IC50 (L1210 leukemia cells; [2]): 28 ng/mL (≈ 24.4 nM)
IC50 (L1210 leukemia cells; [3]): 42 ng/mL (≈ 36.5 nM)
IC50 [1, 4]: 2.4 ng/mL (≈ 2.09 nM)

CCC1(O)CC(OC2CCC(OC3CCC(OC4CCC(O)C(C)O4)C(C)O3)C(C)O2)c2c(O)c3c(c(O)c2C1C(=O)OC)C(=O)c1cccc(O)c1C3=O (stereo not shown) [Cytorhodin J]
IC50 [1, 4]: 4400 ng/mL (≈ 5710 nM)

CCC1(O)CCc2c(O)c3c(c(O)c2C1OC1CC(N(C)C)C(OC2CC(O)C(OC4CCC(O)C(C)O4)C(C)O2)C(C)O1)C(=O)c1cccc(O)c1C3=O (stereo not shown) [Cytorhodin K]
IC50 (L1210 leukemia cells; [2]): 3 ng/mL (≈ 3.89 nM)
IC50 (L1210 leukemia cells; [3]): 31 ng/mL (≈ 40.2 nM)
IC50 [1, 4]: 3.7 ng/mL (≈ 4.79 nM)

CCC1(O)CCc2c(O)c3c(c(O)c2C1OC1CC(N(C)C)C(OC2CCC(O)C(C)O2)C(C)O1)C(=O)c1cccc(O)c1C3=O (stereo not shown) [Cytorhodin L]
IC50 (L1210 leukemia cells; [2]): 210 ng/mL (≈ 327 nM)
IC50 (L1210 leukemia cells; [3]): 1750 ng/mL (≈ 2730 nM)
IC50 [1, 4]: 300 ng/mL (≈ 467 nM)

CCC1(O)CCc2c(O)c3c(c(O)c2C1OC1CC(N(C)C)C(OC2CC(O)C(O)C(C)O2)C(C)O1)C(=O)c1cccc(O)c1C3=O (stereo not shown) [Cytorhodin M]
IC50 (L1210 leukemia cells; [2]): 160 ng/mL (≈ 243 nM)
IC50 (L1210 leukemia cells; [3]): 390 ng/mL (≈ 593 nM)
IC50 [1, 4]: 280 ng/mL (≈ 426 nM)

CCC1(O)CC(OC2CC(N(C)C)C(OC3CC(O)C(OC4CCC(=O)C(C)O4)C(C)O3)C(C)O2)c2c(O)c3c(c(O)c2C1OC1CC(N(C)C)C(OC2CCC(OC4C=CC(=O)C(C)O4)C(C)O2)C(C)O1)C(=O)c1cccc(O)c1C3=O (stereo not shown) [Cytorhodin P]
IC50 (L1210 leukemia cells; [2]): 0.32 ng/mL (≈ 0.274 nM)
IC50 (L1210 leukemia cells; [3]): 2.8 ng/mL (≈ 2.4 nM)
IC50 [1, 4]: 2.6 ng/mL (≈ 2.23 nM)

CCC1(O)CC(OC2CC(N(C)C)C(OC3CCC(OC4C=CC(=O)C(C)O4)C(C)O3)C(C)O2)c2c(O)c3c(c(O)c2C1OC1CC(N(C)C)C(OC2CCC(OC4CCC(O)C(C)O4)C(C)O2)C(C)O1)C(=O)c1cccc(O)c1C3=O (stereo not shown) [Cytorhodin V]
IC50 (L1210 leukemia cells; [2]): 0.27 ng/mL (≈ 0.234 nM)
IC50 (L1210 leukemia cells; [3]): 2 ng/mL (≈ 1.73 nM)
IC50 [1, 4]: 2.9 ng/mL (≈ 2.51 nM)
